Here are results for four compounds from patent US9573953B2, “Heteroaromatic compounds as PI3 kinase modulators and methods of use” (CALITOR SCIENCES, LLC, priority 2013, dated 2017).

Each structure is given as a SMILES string.

For one data set, the target named is T1, mTOR (h) (Homo sapiens, UniProt P42345).
T1 construct: purchased Millipore UK Ltd (assays run there as a service)
In words: mTOR (h) kinase assay. It is filed as biochemical. The procedure: mTOR (h) is incubated with 50 mM HEPES pH 7.5, 1 mM EDTA, 0.01% TWEEN®20, 2 mg/mL substrate, 3 mM Manganese Chloride and [γ-^33P-ATP] (specific activity approx. 500 cpm/pmol, concentration as required). The reaction is initiated by the addition of the MnATP mix. After incubation for 40 minutes at room temperature, the reaction is stopped by the addition of 3% phosphoric acid solution. Aliquote of the reaction (10 μL) is then spotted onto a P30 filtermat and washed three times for 5 minutes in 75 mM phosphoric acid and once in methanol prior to drying and scintillation counting.
(§1) The kinase assays described herein were performed at Millipore UK Ltd, Dundee Technology Park, Dundee DD2 1SW, UK.

For the next data set, the target named is T2, PI3K p110β/p85α (h) (Homo sapiens, UniProt P42338).
T2 construct: purchased Millipore UK Ltd (assays run there as a service)
T2 sequence (P42338 whole entry): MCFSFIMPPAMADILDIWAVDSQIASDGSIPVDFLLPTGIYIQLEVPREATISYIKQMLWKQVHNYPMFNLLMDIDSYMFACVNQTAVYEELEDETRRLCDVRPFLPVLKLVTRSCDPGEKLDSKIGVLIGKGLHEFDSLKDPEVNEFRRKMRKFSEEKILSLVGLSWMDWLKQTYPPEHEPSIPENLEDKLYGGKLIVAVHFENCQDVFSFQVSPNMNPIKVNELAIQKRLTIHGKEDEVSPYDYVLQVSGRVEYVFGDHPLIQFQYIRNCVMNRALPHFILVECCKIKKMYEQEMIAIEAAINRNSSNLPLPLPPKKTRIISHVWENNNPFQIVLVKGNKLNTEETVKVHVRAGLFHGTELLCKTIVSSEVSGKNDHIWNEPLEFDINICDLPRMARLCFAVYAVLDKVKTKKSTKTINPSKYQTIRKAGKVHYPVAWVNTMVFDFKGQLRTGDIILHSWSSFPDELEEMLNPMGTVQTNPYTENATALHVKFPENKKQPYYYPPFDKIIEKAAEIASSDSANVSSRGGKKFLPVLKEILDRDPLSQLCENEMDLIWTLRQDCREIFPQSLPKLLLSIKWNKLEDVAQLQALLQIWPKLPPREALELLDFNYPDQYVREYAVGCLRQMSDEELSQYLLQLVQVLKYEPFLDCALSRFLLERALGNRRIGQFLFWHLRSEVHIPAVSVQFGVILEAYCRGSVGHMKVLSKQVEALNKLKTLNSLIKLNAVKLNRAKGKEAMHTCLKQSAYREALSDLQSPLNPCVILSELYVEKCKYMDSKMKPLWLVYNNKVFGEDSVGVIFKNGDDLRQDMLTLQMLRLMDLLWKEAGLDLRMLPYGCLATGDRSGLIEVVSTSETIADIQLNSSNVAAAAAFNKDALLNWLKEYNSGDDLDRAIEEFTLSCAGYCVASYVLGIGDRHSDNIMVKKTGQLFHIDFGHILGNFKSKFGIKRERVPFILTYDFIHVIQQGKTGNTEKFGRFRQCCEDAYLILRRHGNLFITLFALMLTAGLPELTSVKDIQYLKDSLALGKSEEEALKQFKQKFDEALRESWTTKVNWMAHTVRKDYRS
T2 sequence (P27986 whole entry partner): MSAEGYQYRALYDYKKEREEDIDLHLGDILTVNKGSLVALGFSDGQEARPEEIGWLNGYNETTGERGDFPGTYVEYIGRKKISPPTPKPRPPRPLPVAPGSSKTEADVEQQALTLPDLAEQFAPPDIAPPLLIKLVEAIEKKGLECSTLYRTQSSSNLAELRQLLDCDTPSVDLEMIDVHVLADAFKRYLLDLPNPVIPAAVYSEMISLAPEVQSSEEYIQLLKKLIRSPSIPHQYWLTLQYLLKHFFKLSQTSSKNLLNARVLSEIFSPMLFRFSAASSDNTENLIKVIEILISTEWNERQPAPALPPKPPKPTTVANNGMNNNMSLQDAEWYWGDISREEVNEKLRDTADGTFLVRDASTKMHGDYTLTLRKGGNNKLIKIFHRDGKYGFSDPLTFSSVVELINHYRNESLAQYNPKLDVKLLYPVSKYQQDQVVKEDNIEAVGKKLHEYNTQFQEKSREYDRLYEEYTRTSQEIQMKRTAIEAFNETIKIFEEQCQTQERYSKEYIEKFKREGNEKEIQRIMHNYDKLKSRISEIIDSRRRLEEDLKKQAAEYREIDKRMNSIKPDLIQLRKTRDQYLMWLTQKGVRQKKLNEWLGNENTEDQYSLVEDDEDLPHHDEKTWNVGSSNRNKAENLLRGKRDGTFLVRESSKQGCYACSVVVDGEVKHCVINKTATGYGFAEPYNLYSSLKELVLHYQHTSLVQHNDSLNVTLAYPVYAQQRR
Kind of data set: PI3K p110β/p85α (h) non-radioactive (HTRF) assay. The format is biochemical. The procedure: PI3K p110β/p85α (h) [Non-Radioactive Assay]
(§2) PI3K (p110β/p85α) (h) is incubated in assay buffer containing 10 μM phosphatidylinositol-4,5-bisphosphate and MgATP (concentration as required). The reaction is initiated by the addition of the MgATP mix. After incubation for 30 minutes at room temperature, the reaction is stopped by the addition of stop solution containing EDTA and biotinylated phosphatidylinositol-3,4,5-trisphosphate. Finally, detection buffer is added, which contains europium-labelled anti-GST monoclonal antibody, GST-tagged GRP1 PH domain and streptavidin-allophycocyanin. The plate is then read in time-resolved fluorescence mode and the homogenous time-resolved fluorescence (HTRF) signal is determined according to the formula HTRF=10000×(Em665 nm/Em620 nm).
as §1
In general terms: In TR-FRET formats the signal depends on donor and acceptor labels being close together.

The next data set deals with T3, PI3K (p110δ/p85α) (h) (Homo sapiens, UniProt O00329).
T3 construct: purchased Millipore UK Ltd (assays run there as a service)
T3 sequence (O00329 whole entry): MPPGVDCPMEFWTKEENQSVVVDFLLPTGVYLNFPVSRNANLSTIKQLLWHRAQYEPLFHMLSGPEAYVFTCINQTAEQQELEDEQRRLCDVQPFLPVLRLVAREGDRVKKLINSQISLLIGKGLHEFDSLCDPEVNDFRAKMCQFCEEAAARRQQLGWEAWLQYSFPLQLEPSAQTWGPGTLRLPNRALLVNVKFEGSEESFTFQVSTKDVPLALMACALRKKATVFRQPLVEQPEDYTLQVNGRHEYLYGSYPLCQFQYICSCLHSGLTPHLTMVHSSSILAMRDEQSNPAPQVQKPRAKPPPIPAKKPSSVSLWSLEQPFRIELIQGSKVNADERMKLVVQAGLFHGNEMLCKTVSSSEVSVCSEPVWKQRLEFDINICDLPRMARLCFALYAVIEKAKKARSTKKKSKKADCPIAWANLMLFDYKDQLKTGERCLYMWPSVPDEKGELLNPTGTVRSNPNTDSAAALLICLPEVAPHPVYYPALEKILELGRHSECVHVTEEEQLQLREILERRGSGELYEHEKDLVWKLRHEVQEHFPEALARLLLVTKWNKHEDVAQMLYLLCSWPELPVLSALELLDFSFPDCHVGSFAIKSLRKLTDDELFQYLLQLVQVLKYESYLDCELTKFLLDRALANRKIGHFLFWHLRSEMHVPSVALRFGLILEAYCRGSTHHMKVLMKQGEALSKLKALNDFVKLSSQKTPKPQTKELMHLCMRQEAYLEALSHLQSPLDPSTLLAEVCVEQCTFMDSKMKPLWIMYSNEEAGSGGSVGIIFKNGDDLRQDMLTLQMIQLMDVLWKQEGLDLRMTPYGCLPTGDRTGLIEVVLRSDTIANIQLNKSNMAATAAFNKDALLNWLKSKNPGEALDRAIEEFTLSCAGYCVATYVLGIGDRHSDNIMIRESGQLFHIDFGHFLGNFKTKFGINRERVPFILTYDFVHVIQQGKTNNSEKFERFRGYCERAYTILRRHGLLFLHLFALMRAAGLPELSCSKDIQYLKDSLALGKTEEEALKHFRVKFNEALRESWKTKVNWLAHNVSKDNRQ
T3 sequence (P27986 whole entry partner): as the sequence (P27986 whole entry partner) above
Kind of data set: PI3K (p110δ/p85α) (h) non-radioactive (HTRF) assay. The format is biochemical. The method, then:
PI3K (p110δ/p85α) (h) [Non-Radioactive Assay]
as §2, with “(p110δ/p85α)” for “(p110β/p85α)”
as §1

The nature of data set [1]: Pharmacokinetic profiles in mice. The settings on record: Mouse; for F: iv dose 1 mg/kg, oral dose generally 5 or 10 mg/kg; for clearance / AUC(0-t) / half-life / Vd: iv dosing, 1 mg/kg; for AUC(0-t) / half-life / Vd: plasma; for Vd: read-out: Vss. The format is in vivo. The method, then:
(§3) The compounds disclosed herein are assessed in pharmacokinetic studies in mice, rats, dogs or monkeys. The compounds are administered as a water solution, 2% HPMC+1% TWEEN®80 in water solution, 5% DMSO+5% solutol in saline, 4% MC suspension or capsule. For the intravenous administration, the animals are generally given at 1 or 2 mg/kg dose. For the oral (p.o.) dosing, mice and rats are generally given 5 or 10 mg/kg dose, and dogs and monkeys are generally given 10 mg/kg dose. The blood samples (0.3 mL) are drawn at 0.25, 0.5, 1.0, 2.0, 3.0, 4.0, 6.0, 8.0, 12 and 24 h time points or 0.083, 0.25, 0.5, 1.0, 2.0, 4.0, 6.0, 8.0 and 24 h time points and centrifuged at 3,000 or 4000 rpm for 2 to 10 min. The plasma solutions are collected and stored at −20° C. or −70° C. until analyzed by LC/MS/MS as described above.

Data set [2] can be described thus: Pharmacokinetic profiles in dogs. It is filed as in vivo. The settings on record: Dog; for F: iv dose 1 mg/kg, oral dose generally 10 mg/kg; for clearance / AUC(0-t) / half-life / Vd: iv dosing, 1 mg/kg; for AUC(0-t) / half-life / Vd: plasma; for Vd: read-out: Vss. The method, then: as §3
The nature of data set [3]: Pharmacokinetic profiles in monkeys. It is filed as in vivo. The settings on record: Monkey; for F: iv dose 1 mg/kg, oral dose generally 10 mg/kg; for Cl/F / AUC(0-t) / half-life / Vd: iv dosing, 1 mg/kg; for AUC(0-t) / half-life / Vd: plasma; for Vd: read-out: Vss. The method, then:
as §3

Another data set concerns the target T4, PI3K p110α/p85α (h) (Homo sapiens, UniProt P42336).
T4 construct: purchased Millipore UK Ltd (assays run there as a service)
Kind of data set: PI3K p110α/p85α (h) non-radioactive (HTRF) assay. It is filed as biochemical. The procedure:
PI3K p110α/p85α (h) [Non-Radioactive Assay]
as §2, with “p110α/p85α” for “(p110β/p85α)”, “phosphatidylinositol 4,5-bisphosphate” for “phosphatidylinositol-4,5-bisphosphate”, “ATP solution.” for “MgATP mix.”, “streptavidin allophycocyanin.” for “streptavidin-allophycocyanin.”
as §1

T4 sequence (P42336 whole entry): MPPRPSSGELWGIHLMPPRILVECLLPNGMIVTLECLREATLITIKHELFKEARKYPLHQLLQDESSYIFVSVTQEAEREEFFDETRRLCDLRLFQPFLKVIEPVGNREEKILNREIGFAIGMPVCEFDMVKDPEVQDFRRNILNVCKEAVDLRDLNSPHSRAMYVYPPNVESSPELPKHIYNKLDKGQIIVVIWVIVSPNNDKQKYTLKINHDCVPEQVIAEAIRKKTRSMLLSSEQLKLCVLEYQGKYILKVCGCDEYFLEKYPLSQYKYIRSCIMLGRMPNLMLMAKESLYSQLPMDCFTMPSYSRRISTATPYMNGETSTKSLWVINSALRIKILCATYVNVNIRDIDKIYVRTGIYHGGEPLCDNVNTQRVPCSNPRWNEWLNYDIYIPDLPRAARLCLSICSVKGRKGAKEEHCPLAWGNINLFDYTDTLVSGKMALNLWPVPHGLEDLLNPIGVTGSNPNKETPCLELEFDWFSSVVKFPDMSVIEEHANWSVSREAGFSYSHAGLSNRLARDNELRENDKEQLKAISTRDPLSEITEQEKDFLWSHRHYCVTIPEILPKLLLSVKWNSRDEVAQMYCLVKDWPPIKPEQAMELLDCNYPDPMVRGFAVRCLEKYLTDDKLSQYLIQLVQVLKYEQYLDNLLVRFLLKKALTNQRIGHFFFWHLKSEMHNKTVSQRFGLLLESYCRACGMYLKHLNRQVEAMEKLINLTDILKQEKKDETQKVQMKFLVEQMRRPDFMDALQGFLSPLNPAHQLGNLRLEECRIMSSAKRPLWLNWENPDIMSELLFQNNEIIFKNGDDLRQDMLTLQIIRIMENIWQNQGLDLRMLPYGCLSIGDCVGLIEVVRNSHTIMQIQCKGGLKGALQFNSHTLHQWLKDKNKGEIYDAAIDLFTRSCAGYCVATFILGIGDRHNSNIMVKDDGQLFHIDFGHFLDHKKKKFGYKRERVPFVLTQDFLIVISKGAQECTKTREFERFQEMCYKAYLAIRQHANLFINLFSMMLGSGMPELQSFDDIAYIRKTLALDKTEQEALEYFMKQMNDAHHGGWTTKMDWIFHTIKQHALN
T4 sequence (P27986 whole entry partner): as the sequence (P27986 whole entry partner) above

`COc1ncc(-c2ccn3ncc(C#CCO)c3n2)cc1NS(=O)(=O)c1ccc(F)cc1F` [Ex. 1, 2,4-difluoro-N-(5-(3-(3-hydroxyprop-1-yn-1-yl)pyrazolo[1,5-a]pyrimidin-5-yl)-2-methoxypyridin-3-yl)benzenesulfonamide]: the values for the concentration for half-maximal inhibition (IC50) at mTOR (h), on PI3K p110β/p85α (h) and on PI3K (p110δ/p85α) (h) were 9 nM, 84 nM and 5 nM, respectively.
For `COc1ncc(-c2ccn3ncc(C#N)c3c2)cc1NS(=O)(=O)c1ccc(F)cc1F` [Ex. 3, N-(5-(3-cyanopyrazolo[1,5-a]pyridin-5-yl)-2-methoxypyridin-3-yl)-2,4-difluorobenzenesulfonamide], in data set [1], the F was 79.3%, the clearance is 0.33 mL/min/kg, the AUC(0-t) worked out at 57100 ng·h/mL and the half-life was 5.45 h. For the same compound, the Vd in data set [1] came to 0.13 L/kg. In data set [2], this compound gave an F of 108.5%, a clearance of 4.5 mL/min/kg, an AUC(0-t) of 3670 ng·h/mL and a half-life of 0.67 h. In addition, in data set [2], the Vd is 0.23 L/kg. In addition, in data set [3], the F is 59.8%, the Cl/F came out at 2.67 mL/min/kg, the AUC(0-t) is 5980 ng·h/mL and the half-life was 9.7 h. Further, the Vd in data set [3] worked out at 0.92 L/kg. The same compound yielded an IC50 against mTOR (h) of 4 nM. On PI3K p110β/p85α (h), the IC50 came to 41 nM. The IC50 on PI3K (p110δ/p85α) (h) was found to be 2 nM.
In data set [1], `COc1ncc(-c2ccn3ncc(C#CCO)c3c2)cc1NS(=O)(=O)c1ccc(F)cc1F` [Ex. 4, 2,4-difluoro-N-(5-(3-(3-hydroxyprop-1-yn-1-yl)pyrazolo[1,5-a]pyridin-5-yl)-2-methoxypyridin-3-yl)benzenesulfonamide] showed an F of 70.0%, a clearance of 2.83 mL/min/kg, an AUC(0-t) of 5810 ng·h/mL and a half-life of 1.11 h. Also, in data set [1], the Vd came out at 0.18 L/kg. In data set [2], this compound had an F of 108.5%, a clearance of 1.83 mL/min/kg, an AUC(0-t) of 9070 ng·h/mL and a half-life of 6.13 h. For the same compound, the Vd in data set [2] was 0.19 L/kg. In addition, in data set [3], the F turned out to be 24.0%, the Cl/F was found to be 3 mL/min/kg, the AUC(0-t) worked out at 5740 ng·h/mL and the half-life was 4.64 h. Besides, in data set [3], the Vd was 0.42 L/kg. Further, the IC50 against mTOR (h) turned out to be 4 nM. The concentration for half-maximal inhibition (IC50) at PI3K p110α/p85α (h) was 1 nM. Further, at PI3K p110β/p85α (h), the half-maximal inhibitory concentration (IC50) stood at 22 nM. Also, the IC50 at PI3K (p110δ/p85α) (h) came to 1 nM.
As to `COc1ncc(-c2ccn3ncc(C#N)c3n2)cc1NS(=O)(=O)c1ccc(F)cc1F` [Ex. 2, N-(5-(3-cyanopyrazolo[1,5-a]pyrimidin-5-yl)-2-methoxypyridin-3-yl)-2,4-difluorobenzenesulfonamide], the concentration for half-maximal inhibition (IC50) on mTOR (h) came to 4 nM; at PI3K p110β/p85α (h) it was 45 nM; at PI3K (p110δ/p85α) (h), 5 nM.

Broadly, the IC50 is the concentration that inhibits the measured activity by half. Usually clearance stands for a measure of how efficiently the substance is removed, as volume per time. A word on the AUC(0-t): it is exposure summed from dosing to a finite time, without extrapolation to infinity. Low readings indicate low exposure, high ones high exposure. As a reminder, the half-life is the time in which the quantity being followed falls by half. Low readings indicate rapid decline, high ones slow decline.
